Results from the NIST ThermoML archive (doi:10.1016/j.fluid.2010.10.005).

Experiment: xn = mol fraction of the nth substance listed
Conditions: 623.15 K, Liquid, Vibrating tube method

CO [methanol] + O
Conditions	mass density [kg/m3]
20000 kPa, x1 = 0.04	554.98
20000 kPa, x1 = 0.09	499.06
20000 kPa, x1 = 0.15	466.53
20000 kPa, x1 = 0.18	408.88
20000 kPa, x1 = 0.2	310.04
20000 kPa, x1 = 0.25	240.45
20000 kPa, x1 = 0.38	198.52
20000 kPa, x1 = 0.57	192.93
20000 kPa, x1 = 0.59	193.68
20000 kPa, x1 = 0.73	195.58
20000 kPa, x1 = 0.9	203.5
20000 kPa, x1 = 0.95	203.61
25000 kPa, x1 = 0.06	592.54
25000 kPa, x1 = 0.1	564.26
25000 kPa, x1 = 0.19	481.28
25000 kPa, x1 = 0.29	388.57
25000 kPa, x1 = 0.38	335.66
25000 kPa, x1 = 0.55	284.19
25000 kPa, x1 = 0.8	268.34
30000 kPa, x1 = 0.07	599.12
30000 kPa, x1 = 0.09	578.83
30000 kPa, x1 = 0.12	569.12
30000 kPa, x1 = 0.19	536.54
30000 kPa, x1 = 0.47	401.25
30000 kPa, x1 = 0.54	383.13
30000 kPa, x1 = 0.76	350.39
35000 kPa, x1 = 0.09	603.89
35000 kPa, x1 = 0.18	552.55
35000 kPa, x1 = 0.38	476.16
35000 kPa, x1 = 0.48	449.31
35000 kPa, x1 = 0.55	432.87
35000 kPa, x1 = 0.63	422.11
35000 kPa, x1 = 0.77	406.97
35000 kPa, x1 = 0.87	397.04
